Assay results as given in PMC9381536, “Non-apoptotic cell death induction via sapogenin based supramolecular particles” (Scientific Reports, 2022).

Tests used:
HCC1937 cells = assay: Cytotoxicity of 220 nm filtrates; format: cell-based
Description: Figure 1 AG-08 mediated cytotoxicity relies on the supramolecular structures. (A) Structure of AG-08. (B) The scanning transmission electron micrograph of 16 µM AG-08 in PBS. Figure is a representative image of stained sample with uranyl acetate (5683 × magnification; scale bar 600 nm). (C) After 3 h incubation of Nile red solution with AG-08 or AG, fluorescence intensity of Nile red was measured. (D) AG-08, Staurosporine (Sta) or vehicle samples prepared in the cell condition medium was filtrated by 220 nm filter and HCC1937 cells were exposed to the filtrates. After 24 h, the viability of cells was measured and represented as a percentage of that of the vehicle control. The error bars represent mean value ± s.d. (n = 3). *p < 0.05, **p < 0.005, ***p < 0.001. (E) Tween 20 (1:40,000) was added to the fresh medium before addition of 8 μM AG-08 or vehicle. Then cell medium was replaced with this fresh medium. Cell viability was detected after 24 h incubation. […] TEXT PRINTED IN THE PICTURE: (F) no label printed: Diameter: 153.2±4.6; polydispersity index: 0.218
To verify that the activity of AG-08 arises from its supramolecular structures, freshly prepared AG-08 solutions were filtered using 220 nm-filters to remove AG-08 supramolecular particles from medium, and the filtrates were analyzed for their cytotoxicity. […] Next, Tween-20 was utilized as a non-ionic detergent to block particle formation, and AG-08-mediated cell death was inhibited as expected (Fig. 1E). […]

A549 = system: A549; design: method as in PMID 33136369; settings: cited from earlier work
EEA1 = EEA1 immunofluorescence; format: cell-based, Human; settings: HCC1937, AG-08 16 h
Description: Figure 2 AG-08 is related with endosomal pathway. (A) After pre-treatment with 20 µM pitstop II, 0.5 mM methyl-β-cyclodextrin (MβC), 80 µM dynasore, 20 µM cytochalasin d (Cyto D) or 20 µM chlorpromazine (CPZ) for 1 h, HCC1937 cells were treated with 8 µM AG-08 for 24 h. Then cell viability was determined by using WST-1. Reported values were normalized on cells treated with only AG-08. Error bars are the standard deviations (n = 3). p-values were calculated with respect to AG-08 treated cells by two-tailed equal variance Student’s t-test (*p < 0.05, ***p < 0.001, ****p < 0.0001) (B) HCC1937 cells were treated with brefeldin A (Bref A) for 1 h and then treated with 8 µM AG-08 for 24 h. Error bars represent standard deviations (n = 3). p-values were calculated with respect to AG-08-treated cells (*p < 0.05, **p < 0.005, ***p < 0.001). (C) Following AG-08 treatment for 16 h, EEA1 proteins were stained using the anti-EEA1 antibody in HCC1937 cells (scale bar = 25 µm).
Cells were grown on glass coverslips and treated with AG-08. At the end of treatments, cells were washed twice with ice-cold PBS and fixed with 4% paraformaldehyde in PBS for 30 min at 4 °C. After washing 6 times with PBS, cells were permeabilized and blocked with 0.01% saponin and 0,01% BSA in PBS. […] Mounted samples were analyzed by fluorescence microscopy (Olympus IX70, Japan).

For `Cc1ccc(S(=O)(=O)OC2CCC3(C)C4=CCC5(C)C(C6(C)CCC(C(C)(C)O)O6)C(O)CC5(C)C4C=CC3C2(C)C)cc1` (stereo not drawn) [AG-08], the “cytotoxicity of filtrate after 220 nm filtration” value (HCC1937 cells) is listed as “no longer exhibited any cytotoxicity”, the IC50 (A549) is listed as 2300 nM and the EEA1 positive vesicles (EEA1) is listed as “dramatic decrease”.
